Laboratory results as given in US20140135310A1, “SULPHONAMIDE DERIVATIVES OF ALICYCLIC AMINES FOR THE TREATMENT OF CENTRAL NERVOUS SYSTEM DISEASES” (Adamed Sp. z o.o., priority 2011, published 2014).

Tests used:
[1] = biological target: dopaminergic receptors D2 (Homo sapiens, UniProt P14416); test: Radioligand binding assay, dopaminergic D2 receptors; details: for inhibition at 1 µM / D2 [%]: binding assay, test compound 1×10^−6 M; for Ki: read-out: Inhibition constants Ki for D2 receptors, D2
Chain of dopaminergic receptors D2 (P14416 whole entry): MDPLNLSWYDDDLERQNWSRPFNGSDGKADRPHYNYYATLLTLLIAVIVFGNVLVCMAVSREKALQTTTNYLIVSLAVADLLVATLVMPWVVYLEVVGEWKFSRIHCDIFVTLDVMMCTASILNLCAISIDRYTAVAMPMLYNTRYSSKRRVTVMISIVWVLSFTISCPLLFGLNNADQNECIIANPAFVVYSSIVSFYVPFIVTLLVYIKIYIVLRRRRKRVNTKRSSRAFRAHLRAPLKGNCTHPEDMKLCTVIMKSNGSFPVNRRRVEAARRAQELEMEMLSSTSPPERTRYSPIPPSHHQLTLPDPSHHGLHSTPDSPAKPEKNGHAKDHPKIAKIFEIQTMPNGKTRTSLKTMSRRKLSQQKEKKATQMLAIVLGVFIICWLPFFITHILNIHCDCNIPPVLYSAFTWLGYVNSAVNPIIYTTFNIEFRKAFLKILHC
In short: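 Values derive from competition curves: percent inhibition of control specific binding was fitted by Hill non-linear regression for IC50, and Ki calculated with Cheng–Prusoff from radioligand concentration and KD (Scatchard). Bound ligand was detected by scintillation counting.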

[2] = biological target: dopaminergic receptors D3 (Homo sapiens, UniProt P35462); test: Radioligand binding assay, dopaminergic D3 receptors; details: test compound 1×10^−6 M
Chain of dopaminergic receptors D3 (P35462 whole entry): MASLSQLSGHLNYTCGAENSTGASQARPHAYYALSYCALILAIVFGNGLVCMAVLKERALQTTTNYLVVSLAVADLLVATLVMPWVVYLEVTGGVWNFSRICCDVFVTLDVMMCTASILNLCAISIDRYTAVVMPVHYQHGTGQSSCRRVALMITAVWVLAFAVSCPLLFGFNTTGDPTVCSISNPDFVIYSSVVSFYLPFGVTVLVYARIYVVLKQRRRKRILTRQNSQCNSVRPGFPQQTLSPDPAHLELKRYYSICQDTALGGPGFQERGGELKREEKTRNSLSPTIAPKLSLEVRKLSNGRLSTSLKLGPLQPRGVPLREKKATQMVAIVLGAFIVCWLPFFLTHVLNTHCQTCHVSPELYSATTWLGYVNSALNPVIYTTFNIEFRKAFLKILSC
In short: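 Scintillation read-out. Specific = total − nonspecific (excess cold ligand). Data as % of control specific binding / % inhibition; IC50 by Hill fit; Ki = IC50/(1+L/KD), KD from Scatchard plot.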

5-HT2C receptor = biological target: T1, 5-HT2C receptor (Homo sapiens, UniProt P28335); test: Radioligand binding assay, serotoninergic 5-HT2C receptors; details: test compound 1×10^−6 M
T1 construct: expressed in transfected cells; host or cells: HEK-293 cells
T1 sequence (P28335 33-458): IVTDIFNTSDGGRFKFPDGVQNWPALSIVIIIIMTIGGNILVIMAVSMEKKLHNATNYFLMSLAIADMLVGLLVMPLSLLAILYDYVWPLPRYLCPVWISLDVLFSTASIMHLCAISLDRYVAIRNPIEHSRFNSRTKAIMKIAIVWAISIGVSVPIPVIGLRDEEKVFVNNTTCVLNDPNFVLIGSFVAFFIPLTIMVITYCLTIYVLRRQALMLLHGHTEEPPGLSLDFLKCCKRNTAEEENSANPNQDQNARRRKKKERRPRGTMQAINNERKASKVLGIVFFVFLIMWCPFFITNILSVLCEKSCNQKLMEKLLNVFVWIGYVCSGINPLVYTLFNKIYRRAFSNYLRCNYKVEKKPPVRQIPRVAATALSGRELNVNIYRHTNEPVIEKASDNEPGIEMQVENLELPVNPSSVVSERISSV
Excerpt: (§1) The specific ligand binding to the receptors is defined as the difference between the total binding and the non-specific binding determined in the presence of the excess of unlabelled ligand.
(§2) The results are expressed as a percent of control specific binding ((measured specific binding/control specific binding)×100) and as a percent inhibition of control specific binding (100−((measured specific binding/control specific binding)×100)) obtained in the presence of the test compounds. The specific ligand binding to the receptors is defined as the difference between the total binding and the nonspecific binding determined in the presence of an excess of unlabelled ligand. Scintillation counting was the method of detection of ligand binding. The IC50 values (concentration causing a half-maximal inhibition of control specific binding) were determined by non-linear regression analysis of the competition curves generated with mean replicate values using Hill equation curve fitting (Y=D+[(A−D)/(1+(C/C50)nH)], where Y=specific binding, D=minimum specific binding, A=maximum specific binding, C=compound concentration, C50=IC50, and nH=slope factor). This analysis was performed using a software developed at Cerep (Hill software) and validated by comparison with data generated by the commercial software SigmaPlot® 4.0 for Windows® (© 1997 by SPSS Inc.). The inhibition constants (Ki) were calculated using the Cheng Prusoff equation (Ki=IC50/(1+(L/KD)), where L=concentration of radioligand in the assay, and KD=affinity of the radioligand for the receptor). A scatchard plot was used to determine the Kd.
Experimental conditions for tests are given in Table 4, and results of tests for representative compounds of the invention are given in Table 5a and 5b (receptors 5-HT1A, 5-HT2A, 5-HT6 and 5-HT7) and in Table 6 (receptors 5-HT2C).

5-HT6 receptor = biological target: T2, 5-HT6 receptor (Homo sapiens, UniProt P50406); test: Radioligand binding assay, serotoninergic 5-HT6 receptors; details: for inhibition at 1 µM / 5-HT6 [%]: binding assay result in %, Table 5a; for Ki: read-out: Inhibition constants Ki, 5-HT6
T2 construct: purchased PerkinElmer
T2 sequence (P50406 whole entry): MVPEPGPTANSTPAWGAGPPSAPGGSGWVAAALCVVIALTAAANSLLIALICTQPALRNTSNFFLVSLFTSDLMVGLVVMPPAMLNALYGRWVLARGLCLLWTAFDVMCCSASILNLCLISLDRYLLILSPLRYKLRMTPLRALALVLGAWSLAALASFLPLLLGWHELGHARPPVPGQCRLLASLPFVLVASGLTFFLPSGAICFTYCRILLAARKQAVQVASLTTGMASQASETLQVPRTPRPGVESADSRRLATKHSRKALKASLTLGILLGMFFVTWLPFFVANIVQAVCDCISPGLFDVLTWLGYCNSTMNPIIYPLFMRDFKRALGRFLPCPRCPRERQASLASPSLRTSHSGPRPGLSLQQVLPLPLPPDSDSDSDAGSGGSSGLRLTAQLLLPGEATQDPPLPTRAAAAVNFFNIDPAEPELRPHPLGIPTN
In short: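 Values are Ki from Cheng–Prusoff, taking IC50 from Hill nonlinear regression of competition curves and KD from a Scatchard plot. Specific binding was total minus binding with excess unlabelled ligand. Radioligand displacement was detected by scintillation counting, and data were also reported as percent of control specific binding.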

α2C adrenergic receptors = biological target: T3, α2C adrenergic receptors (Homo sapiens, UniProt P18825); test: Radioligand binding assay, adrenergic α2C receptors; details: test compound 1×10^−6 M
T3 construct: expressed in transfected cells; host or cells: CHO cells
T3 sequence (P18825 1-462): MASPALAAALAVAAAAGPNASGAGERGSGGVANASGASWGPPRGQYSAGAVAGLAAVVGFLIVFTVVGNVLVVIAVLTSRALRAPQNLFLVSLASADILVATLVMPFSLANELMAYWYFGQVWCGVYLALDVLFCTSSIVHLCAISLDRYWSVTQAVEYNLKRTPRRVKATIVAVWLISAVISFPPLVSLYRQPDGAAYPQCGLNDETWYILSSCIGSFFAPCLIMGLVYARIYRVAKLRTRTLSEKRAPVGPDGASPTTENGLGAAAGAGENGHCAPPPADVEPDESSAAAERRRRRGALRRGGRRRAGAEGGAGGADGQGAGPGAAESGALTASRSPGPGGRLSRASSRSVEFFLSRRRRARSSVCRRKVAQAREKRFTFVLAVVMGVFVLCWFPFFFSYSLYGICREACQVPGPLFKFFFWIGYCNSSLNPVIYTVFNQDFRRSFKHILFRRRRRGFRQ
Excerpt: as §1, §2
Experimental conditions for tests are given in Table 7, and results of tests for representative compounds are given in Tables 8 (α1 receptors) and in Tables 9 (α2C receptors).

[3] = biological target: T4, serotonin transporter (SERT) (Homo sapiens, UniProt P31645); test: Radioligand binding assay, serotonin transporter (SERT); details: for inhibition at 1 µM / SERT [%]: binding assay, test compound 1×10^−6 M
T4 construct: expressed in transfected cells; host or cells: CHO cells
T4 sequence (P31645 whole entry): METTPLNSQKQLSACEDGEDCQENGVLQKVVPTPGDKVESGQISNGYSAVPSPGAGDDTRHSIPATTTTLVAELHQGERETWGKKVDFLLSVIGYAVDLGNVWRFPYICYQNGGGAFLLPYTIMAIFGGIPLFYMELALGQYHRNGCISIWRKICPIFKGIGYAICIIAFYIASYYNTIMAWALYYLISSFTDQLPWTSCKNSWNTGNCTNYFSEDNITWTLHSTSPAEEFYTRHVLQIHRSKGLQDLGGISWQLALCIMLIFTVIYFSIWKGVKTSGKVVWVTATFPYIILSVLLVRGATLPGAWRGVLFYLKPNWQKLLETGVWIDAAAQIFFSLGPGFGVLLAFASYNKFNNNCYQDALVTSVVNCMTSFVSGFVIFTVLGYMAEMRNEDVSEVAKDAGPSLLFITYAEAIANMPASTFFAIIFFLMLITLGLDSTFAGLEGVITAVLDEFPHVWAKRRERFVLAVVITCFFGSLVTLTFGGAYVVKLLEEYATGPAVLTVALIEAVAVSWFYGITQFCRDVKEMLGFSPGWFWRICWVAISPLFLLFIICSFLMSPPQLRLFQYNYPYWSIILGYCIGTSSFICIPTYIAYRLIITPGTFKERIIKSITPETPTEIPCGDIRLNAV
In short: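 Values are derived from competition curves fitted by the Hill equation to give IC50, then converted to Ki by Cheng-Prusoff with radioligand Kd from Scatchard analysis. Specific binding equals total minus non-specific (excess cold ligand), counted by scintillation, and is also expressed as percent inhibition of control.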

**Q.** `O=S(=O)(NC1CCN(CCCc2noc3cc(F)ccc23)C1)c1ccc(Cl)c(F)c1` (stereo not shown) [Compound 11, 4-Chloro-3-fluoro-N-[1-[3-(6-fluoro-1,2-benzoxazol-3-yl)propyl]-pyrrolidin-3-yl]benzene-sulphonamide] was tested. Which inhibition at 1 µM [1] did it give?
**A.** Its inhibition at 1 µM is 89%.

**Q.** And the inhibition at 1 µM [2]?
**A.** Its inhibition at 1 µM is 49%.

**Q.** What about the inhibition at 1 µM (5-HT2C receptor) of the same compound?
**A.** The inhibition at 1 µM was 27%.

**Q.** What about the inhibition at 1 µM (5-HT6 receptor) of the same compound?
**A.** The inhibition at 1 µM was 94%.

**Q.** And the inhibition at 1 µM (α2C adrenergic receptors)?
**A.** Its inhibition at 1 µM is 71%.

**Q.** And the inhibition at 1 µM [3]?
**A.** The inhibition at 1 µM was -6%.

**Q.** For `Cc1c(S(=O)(=O)NC2CCN(CCCc3noc4cc(F)ccc34)C2)sc2ccc(Cl)cc12` (stereo not shown) [Compound 29, 5-Chloro-N-[1-[3-(6-fluoro-1,2-benzoxazol-3-yl)propyl]pyrrolidin-3-yl]-3-methyl-benzothiophene-2-sulphonamide], which inhibition at 1 µM [1] is on record?
**A.** Its inhibition at 1 µM is 97%.

**Q.** And the inhibition at 1 µM [2]?
**A.** Its inhibition at 1 µM is 85%.

**Q.** And the inhibition at 1 µM (5-HT2C receptor)?
**A.** Its inhibition at 1 µM is 28%.

**Q.** What about the inhibition at 1 µM (5-HT6 receptor) of the same compound?
**A.** Its inhibition at 1 µM is 92%.

**Q.** What about the inhibition at 1 µM (α2C adrenergic receptors) of the same compound?
**A.** The inhibition at 1 µM was 84%.

**Q.** What about the inhibition at 1 µM [3] of the same compound?
**A.** Its inhibition at 1 µM is 44%.

**Q.** For `O=S(=O)(NC1CN(CCOc2cccc3[nH]ccc23)C1)c1ccc(F)cc1` [Compound 46, 4-Fluoro-N-[1-[2-(1H-indol-4-yloxy)ethyl]azetidin-3-yl]benzene-sulphonamide], which inhibition at 1 µM [1] is on record?
**A.** Its inhibition at 1 µM is 93%.

**Q.** What about the inhibition at 1 µM [2] of the same compound?
**A.** The inhibition at 1 µM was 104%.

**Q.** What about the inhibition at 1 µM (5-HT2C receptor) of the same compound?
**A.** Its inhibition at 1 µM is 21%.

**Q.** And the inhibition at 1 µM (5-HT6 receptor)?
**A.** The inhibition at 1 µM was 9%.

**Q.** And the inhibition at 1 µM (α2C adrenergic receptors)?
**A.** Its inhibition at 1 µM is 101%.

**Q.** And the inhibition at 1 µM [3]?
**A.** Its inhibition at 1 µM is 7%.

**Q.** `O=S(=O)(NC1CCN(CCCc2c[nH]c3ccc(F)cc23)C1)c1cccc2ccccc12` (stereo not shown) [Compound 79, N-[1-[3-(5-Fluoro-1H-indol-3-yl)propyl]pyrrolidin-3-yl]naphthalene-1-sulphonamide] was tested. Which inhibition at 1 µM [1] did it give?
**A.** Its inhibition at 1 µM is 95%.

**Q.** What about the inhibition at 1 µM [2] of the same compound?
**A.** The inhibition at 1 µM was 97%.

**Q.** And the inhibition at 1 µM (5-HT6 receptor)?
**A.** Its inhibition at 1 µM is 86%.

**Q.** What about the inhibition at 1 µM (α2C adrenergic receptors) of the same compound?
**A.** Its inhibition at 1 µM is 96%.

**Q.** What about the inhibition at 1 µM [3] of the same compound?
**A.** The inhibition at 1 µM was 105%.

**Q.** What about the Ki ([3]; read-out: Inhibition constants Ki for SERT, SERT) of the same compound?
**A.** The Ki was 0.7 nM.

**Q.** For `CC1(C)Cc2cccc(OCCN3CCC(NS(=O)(=O)c4cccc(O)c4)CC3)c2O1` [Compound 109, N-[1-[2-[(2,2-Dimethyl-3H-benzofuran-7-yl)oxy]ethyl]-4-piperidine]-3-hydroxy-benzenesulphonamide], which “D2 [%]” value [1] is on record?
**A.** Its value is 92%.

**Q.** What about the “D3 [%]” value [2] of the same compound?
**A.** Its value is 86%.

**Q.** What about the “5-HT6 [%]” value (5-HT6 receptor) of the same compound?
**A.** The value was 67%.

**Q.** And the “α2C [%]” value (α2C adrenergic receptors)?
**A.** The value was 98%.

**Q.** And the “SERT [%]” value [3]?
**A.** The value was −10%.

**Q.** Which “D2 [%]” value [1] does the source give for `O=S(=O)(NC1CCN(CCOc2cccc3ccccc23)C1)c1cccc(O)c1` (stereo not shown) [Compound 115, 3-Hydroksy-N-[1-[2-(1-naphthyloxy)ethyl]pyrrolidin-3-yl]benzenesulphonamide] here?
**A.** Its value is 74%.

**Q.** And the “D3 [%]” value [2]?
**A.** The value was 97%.

**Q.** And the “5-HT6 [%]” value (5-HT6 receptor)?
**A.** Its value is 88%.

**Q.** What about the “α2C [%]” value (α2C adrenergic receptors) of the same compound?
**A.** Its value is 90%.

**Q.** What about the “SERT [%]” value [3] of the same compound?
**A.** Its value is 83%.

**Q.** Which inhibition at 1 µM [1] does the source give for `O=S(=O)(N[C@H]1CCN(CCCc2noc3cc(F)ccc23)C1)c1ccc2ccccc2c1` [Compound 207, N-[(3S)-1-[3-(6-Fluoro-1,2-benzoxazol-3-yl)propyl]pyrrolidin-3-yl]-naphthalene-2-sulphonamide] here?
**A.** Its inhibition at 1 µM is 101%.

**Q.** What about the Ki [1] of the same compound?
**A.** The Ki was 3.8 nM.

**Q.** What about the inhibition at 1 µM [2] of the same compound?
**A.** The inhibition at 1 µM was 85%.

**Q.** What about the inhibition at 1 µM (5-HT6 receptor) of the same compound?
**A.** The inhibition at 1 µM was 101%.

**Q.** What about the Ki (5-HT6 receptor) of the same compound?
**A.** The Ki was 7.7 nM.

**Q.** What about the inhibition at 1 µM (α2C adrenergic receptors) of the same compound?
**A.** Its inhibition at 1 µM is 90%.

**Q.** And the inhibition at 1 µM [3]?
**A.** Its inhibition at 1 µM is 58%.

**Q.** Which inhibition at 1 µM [1] does the source give for `Cc1ccc2sc(S(=O)(=O)N[C@H]3CCN(CCCc4noc5cc(F)ccc45)C3)cc2c1` [Compound 229, N-[(3S)-1-[3-(6-Fluoro-1,2-benzoxazol-3-yl)propyl]pyrrolidin-3-yl]-5-methylbenzothiophene-2-sulphonamide] here?
**A.** The inhibition at 1 µM was 101%.

**Q.** What about the Ki [1] of the same compound?
**A.** Its Ki is 2.4 nM.

**Q.** What about the inhibition at 1 µM [2] of the same compound?
**A.** The inhibition at 1 µM was 93%.

**Q.** And the inhibition at 1 µM (5-HT6 receptor)?
**A.** The inhibition at 1 µM was 98%.

**Q.** And the Ki (5-HT6 receptor)?
**A.** Its Ki is 43 nM.

**Q.** And the inhibition at 1 µM (α2C adrenergic receptors)?
**A.** The inhibition at 1 µM was 98%.

**Q.** What about the inhibition at 1 µM [3] of the same compound?
**A.** Its inhibition at 1 µM is 50%.

**Q.** Which results are given for `Cc1c(S(=O)(=O)NCC2CCN(CCCc3noc4cc(F)ccc34)C2)sc2ccc(Cl)cc12` (stereo not shown) [Compound 238, 5-Chloro-N-[[1-[3-(6-fluoro-1,2-benzoxazol-3-yl)propyl]pyrrolidin-3-yl]methyl]-3-methyl-benzothiophene-2-sulphonamide]?
**A.** inhibition at 1 µM [1]: 98%; Ki [1]: 3.9 nM; inhibition at 1 µM [2]: 95%; inhibition at 1 µM (5-HT6 receptor): 96%; Ki (5-HT6 receptor): 17 nM; inhibition at 1 µM (α2C adrenergic receptors): 94%; inhibition at 1 µM [3]: 64%
